Test results reported in ChEMBL document CHEMBL2073909 (J Pharmacol Exp Ther, 1999).

Columns and labels:
[1] = target: T1, Hepatic sodium/bile acid cotransporter (Homo sapiens, UniProt Q14973); assay type: functional, cell-based, HeLa
T1 sequence (Q14973 whole entry): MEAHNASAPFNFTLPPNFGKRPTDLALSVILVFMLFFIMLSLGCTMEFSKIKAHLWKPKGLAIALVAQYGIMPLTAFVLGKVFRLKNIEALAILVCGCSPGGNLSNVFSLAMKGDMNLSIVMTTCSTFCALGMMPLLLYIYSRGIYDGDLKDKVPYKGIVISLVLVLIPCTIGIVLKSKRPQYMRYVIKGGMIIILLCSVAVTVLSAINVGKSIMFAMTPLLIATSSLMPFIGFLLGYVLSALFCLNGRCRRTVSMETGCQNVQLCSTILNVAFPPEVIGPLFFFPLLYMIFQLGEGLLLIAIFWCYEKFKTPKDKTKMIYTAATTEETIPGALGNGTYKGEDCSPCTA

[2] = target: T1, Hepatic sodium/bile acid cotransporter; test: TP_TRANSPORTER: inhibition of Taurocholate uptake (Taurocholate: 5 uM, Deoxycholate: 100 uM) in NTCP-expressing HeLa cells; assay type: functional, cell-based
[3] = target: T1, Hepatic sodium/bile acid cotransporter; test: TP_TRANSPORTER: inhibition of Taurocholate uptake (Taurocholate: 5 uM, Chlorpropamide: 100 uM) in NTCP-expressing HeLa cells; assay type: functional, cell-based
[4] = target: T1, Hepatic sodium/bile acid cotransporter; test: TP_TRANSPORTER: inhibition of Taurocholate uptake (Taurocholate: 5 uM, Progesterone: 100 uM) in NTCP-expressing HeLa cells; assay type: functional, cell-based

| SMILES | IC50 [1] [µM] | also measured |
| --- | --- | --- |
| CC(C)NCC(O)COc1cccc2ccccc12 (stereo not drawn) [PROPRANOLOL] | 5.5 | – |
| C[C@H](CCC(=O)O)[C@H]1CC[C@H]2[C@@H]3CC[C@@H]4C[C@H](O)CC[C@]4(C)[C@H]3C[C@H](O)[C@]12C [DEOXYCHOLIC ACID] | – | Inhibition [2]: inhibitor [(at a rough estimate) 70 % inhibition] |
| CCCNC(=O)NS(=O)(=O)c1ccc(Cl)cc1 [CHLORPROPAMIDE] | – | Inhibition [3]: inhibitor [(at a rough estimate) 30 % inhibition] |
| CC(C)NC[C@H](O)COc1cccc2ccccc12 [LEVOPROPRANOLOL] | 6.1 | – |
| C[C@H](CCC(=O)O)[C@H]1CC[C@H]2[C@@H]3[C@@H](O)C[C@@H]4C[C@H](O)CC[C@]4(C)[C@H]3CC[C@]12C [URSODIOL] | 3.6 | – |
| O=C1OC(c2ccc(O)c(S(=O)(=O)O)c2)(c2ccc(O)c(S(=O)(=O)O)c2)c2c(Br)c(Br)c(Br)c(Br)c21 [SULFOBROMOPHTHALEIN SODIUM] | 7.3 | – |
| CC(=O)N1CCN(c2ccc(OCC3COC(Cn4ccnc4)(c4ccc(Cl)cc4Cl)O3)cc2)CC1 (stereo not drawn) [KETOCONAZOLE] | 264 | – |
| CC(=O)[C@H]1CC[C@H]2[C@@H]3CCC4=CC(=O)CC[C@]4(C)[C@H]3CC[C@]12C [PROGESTERONE] | – | Inhibition [4]: inhibitor [(at a rough estimate) 80 % inhibition] |
